“And” between values parts separate entries of the source, which are not always exact repeats. Equal values may be shown once.
Experiments:
Assay type in all cases: biochemical
[1] = target: T1, paraoxon (POX)-inhibited human recombinant AChE (HssAChE) (Homo sapiens, UniProt P22303); details: for POX-HssAChE Reactivation (% ± SD): pH 7.4
T1 construct: purchased Sigma-Aldrich

[2] = target: T2, diisopropylfluorophosphate (DFP)-inhibited human recombinant AChE (HssAChE) (Homo sapiens, UniProt P22303); details: pH 7.4
T2 construct: purchased Sigma-Aldrich
T2 sequence (P22303 32-614): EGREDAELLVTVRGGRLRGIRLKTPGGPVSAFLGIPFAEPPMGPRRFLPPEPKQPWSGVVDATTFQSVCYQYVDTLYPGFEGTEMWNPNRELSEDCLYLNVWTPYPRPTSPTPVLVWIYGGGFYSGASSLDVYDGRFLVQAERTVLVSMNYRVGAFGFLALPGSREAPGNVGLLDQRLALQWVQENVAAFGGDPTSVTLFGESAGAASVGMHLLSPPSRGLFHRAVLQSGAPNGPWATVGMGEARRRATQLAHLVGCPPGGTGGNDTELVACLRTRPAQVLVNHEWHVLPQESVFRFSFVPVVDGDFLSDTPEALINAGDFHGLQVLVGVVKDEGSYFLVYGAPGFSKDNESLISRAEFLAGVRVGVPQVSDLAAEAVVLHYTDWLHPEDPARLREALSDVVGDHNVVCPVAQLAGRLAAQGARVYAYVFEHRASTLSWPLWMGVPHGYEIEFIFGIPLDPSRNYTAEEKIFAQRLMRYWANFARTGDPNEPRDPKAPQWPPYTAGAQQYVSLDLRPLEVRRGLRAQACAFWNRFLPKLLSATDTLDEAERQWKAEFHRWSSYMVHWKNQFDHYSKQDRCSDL

[3] = target: T3, methylparaoxon (MePOX)-inhibited human recombinant AChE (HssAChE) (Homo sapiens, UniProt P22303); details: for MePOX-HssAChE Reactivation (% ± SD): pH 7.4
T3 construct: purchased Sigma-Aldrich
T3 sequence (P22303 32-614): as above

T1 sequence (P22303 32-614): as above

Structure (SMILES) | POX-HssAChE Reactivation (% ± SD) [1] | DFP-HssAChE Reactivation (% ± SD) [2] | MePOX-HssAChE Reactivation (% ± SD) [3] | POX reactivation, maximum over both concentrations [1] | MePOX reactivation, maximum over both concentrations [3]
CC(=O)c1cc[n+](CCCC[n+]2ccc(C=NO)cc2)cc1.[Br-].[Br-] [Compound 19, 4-Hydroxyiminomethyl-4′-methylcarbonyl-1,1′-(but-1,4-diyl)-bispyridinium dibromide] | 11.9 ± 1.0% and 3.9 ± 0.3% | 1.5 ± 0.3% and 1.0 ± 0.2% | 5.2 ± 0.4% and 7.5 ± 0.1% | – | –
CC(C)(C)c1cc[n+](CCCC[n+]2ccc(C=NO)cc2)cc1.[Br-].[Br-] [Compound 15, 4-Hydroxyiminomethyl-4′-(1,1-dimethylethyl)-1,1′-(but-1,4-diyl)-bispyridinium dibromide] | – | 1.7 ± 0.5% and 0.8 ± 0.3% | 4.0 ± 0.5% and 7.6 ± 0.5% | – | –
NC(=O)c1cc[n+](CCCC[n+]2ccc(/C=N/O)cc2)cc1 [Compound 6, reference compound] | – | 3.8 ± 0.1% and 1.4 ± 0.1% | 54.4 ± 0.9% and 29.1 ± 0.4% | – | –
ON=Cc1cc[n+](CCCC[n+]2ccc(Cc3ccccc3)cc2)cc1.[Br-].[Br-] [Compound 17, 4-Hydroxyiminomethyl-4′-phenylmethyl-1,1′-(but-1,4-diyl)-bispyridinium dibromide] | 1.2 ± 0.1% and 4.7 ± 0.3% | 0.0 ± 0.5% and 0.8 ± 0.2% | 0.0 ± 0.1% and 3.8 ± 0.4% | – | –
ON=Cc1cc[n+](CCC[n+]2ccc(/C=N/O)cc2)cc1 [Compound 4, trimedoxime, reference compound] | – | 10.0 ± 0.5% and 2.7 ± 0.3% | 51.4 ± 0.9% and 59.5 ± 0.7% | – | –
NC(=NO)c1cc[n+](CCCC[n+]2ccc(C=NO)cc2)cc1.[Br-].[Br-] [Compound 23, 4-(1-Amino-1-hydroxyiminomethyl)-4′-hydroxyiminomethyl-1,1′-(but-1,4-diyl)-bispyridinium dibromide] | – | 3.1 ± 0.8% and 2.0 ± 0.2% | 21% and 20.2 ± 1.0% and 20.7 ± 0.4% | – | –
N#Cc1cc[n+](CCCC[n+]2ccc(C=NO)cc2)cc1 [Compound 22, 4-Carbonitril-4′-hydroxyiminomethyl-1,1′-(but-1,4-diyl)-bispyridinium dibromide] | – | 1.7 ± 0.5% and 0.4 ± 0.2% | 11.1 ± 0.1% and 13.8 ± 0.3% | – | –
NC(=O)c1cc[n+](C/C=C/C[n+]2ccc(/C=N/O)cc2)cc1 [Compound 9, (E)-1-(4-Carbamoylpyridinium)-4-(4-hydroxyiminomethylpyridinium)-but-2-ene Dibromide, reference compound] | – | 4.4 ± 0.1% and 2.1 ± 0.4% | 55.9 ± 0.5% and 41.1 ± 0.1% | – | –
ON=Cc1cc[n+](CCCC[n+]2ccc3ccccc3c2)cc1 [Compound 13, 4-Hydroxyiminomethyl-1,1′-(but-1,4-diyl)-1-pyridinium-1′-isoquinolinium dibromide] | 9.1 ± 0.3% and 8.7 ± 0.3% | 0.7 ± 0.2% and 1.1 ± 0.2% | 8.2 ± 0.8% and 16.9 ± 0.4% | – | –
ON=Cc1cc[n+](CCCC[n+]2ccc(/C=N/O)cc2)cc1 [Compound 7, reference compound] | – | 1.4 ± 0.5% and 1.4 ± 0.2% | 17.9 ± 0.1% and 21.2 ± 0.4% | – | –
ON=Cc1cc[n+](C[n+]2ccc(C=NO)cc2)cc1 [Compound 5, methoxime, reference compound] | – | 2.4 ± 0.1% and 0.6 ± 0.3% | 14.2 ± 0.1% and 14.3 ± 0.2% | – | –
ON=Cc1cc[n+](CCCC[n+]2ccccn2)cc1 [Compound 11, 4-Hydroxyiminomethyl-1,1′-(but-1,4-diyl)-1-pyridinium-1′-pyridazinium dibromide] | 6.3 ± 0.8% and 3.0 ± 0.3% | 1.2 ± 0.7% and 1.0 ± 0.4% | 7.1 ± 0.7% and 11.8 ± 0.4% | – | –
O=C(O)c1cc[n+](CCCC[n+]2ccc(C=NO)cc2)cc1.[Br-].[Br-] [Compound 20, 4-Carboxy-4′-hydroxyiminomethyl-1,1′-(but-1,4-diyl)-bispyridinium dibromide] | – | 1.1 ± 0.5% and 0.4 ± 0.1% | 9.5 ± 0.3% and 8.8 ± 0.4% | – | –
C[n+]1ccccc1/C=N/O [Compound 1, pralidoxime, reference compound] | 10.7 ± 0.3% and 2.1 ± 0.1% | 1.3 ± 0.6% and 0.1 ± 0.4% | 30.2 ± 0.3% and 22.4 ± 0.7% | up to 11% | up to 30%
CCOC(=O)c1cc[n+](CCCC[n+]2ccc(C=NO)cc2)cc1 [Compound 21, 4-Ethylcarboxy-4′-hydroxyiminomethyl-1,1′-(but-1,4-diyl)-bispyridinium dibromide] | 7.1 ± 0.7% and 4.0 ± 0.6% | 0.8 ± 0.3% and 1.1 ± 0.2% | 3.8 ± 0.4% and 7.2 ± 0.2% | – | –
ON=Cc1cc[n+](C/C=C/C[n+]2ccc(/C=N/O)cc2)cc1 [Compound 8, reference compound] | – | 1.1 ± 0.3% and 1.5 ±0.2% | 19.2 ± 0.9% and 22.8 ± 0.2% | – | –
ON=Cc1cc[n+](CCCC[n+]2ccccc2)cc1.[Br-].[Br-] [Compound 10, 4-Hydroxyiminomethyl-1,1′-(but-1,4-diyl)-bispyridinium dibromide] | – | 2.4 ± 0.5% and 0.4 ± 0.3% | 14.3 ± 0.8% and 13.2 ± 0.1% | – | –
Cc1cc[n+](CCCC[n+]2ccc(C=NO)cc2)cc1.[Br-].[Br-] [Compound 14, 4-Hydroxyiminomethyl-4′-methyl-1,1′-(but-1,4-diyl)-bispyridinium dibromide] | – | 1.1 ± 0.4% and 0.8 ± 0.3% | 9.5 ± 0.5% and 9.4 ± 0.2% | – | –
OCc1cc[n+](CCCC[n+]2ccc(C=NO)cc2)cc1.[Br-].[Br-] [Compound 18, 4-Hydroxyiminomethyl-4′-hydroxymethyl-1,1′-(but-1,4-diyl)-bispyridinium dibromide] | – | 3.8 ± 1.0% and 1.4 ± 0.4% | 6.7 ± 0.3% and 8.1 ± 0.3% | – | –
NC(=O)c1cc[n+](CCCC[n+]2ccc(C=NO)cc2)cc1C(N)=O.[Br-].[Br-] [Compound 24, 3,4-Dicarbamoyl-4′-hydroxyiminomethyl-1,1′-(but-1,4-diyl)-bispyridinium dibromide] | 2.0 ± 0.4% and 2.2 ± 0.8% | 0.7 ± 0.4% and 0.7 ± 1.0% | 4.2 ± 0.5% and 10.1 ± 0.2% | – | –
ON=Cc1cc[n+](CCCC[n+]2ccc(-c3ccccc3)cc2)cc1.[Br-].[Br-] [Compound 16, 4-Hydroxyiminomethyl-4′-phenyl-1,1′-(but-1,4-diyl)-bispyridinium dibromide] | 6.9 ± 0.4% and 8.9 ± 0.5% | 0.7 ± 0.2% and 1.0 ± 0.3% | 1.7 ± 0.3% and 6.2 ± 0.4% | – | –
ON=Cc1cc[n+](CCCC[n+]2cccc3ccccc32)cc1 [Compound 12, 4-Hydroxyiminomethyl-1,1′-(but-1,4-diyl)-1-pyridinium-1′-quinolinium dibromide] | 0.6 ± 0.5% and 2.0 ± 0.1% | 0.2 ± 1.0% and 0.8 ± 0.2% | 2.2 ± 0.5% and 8.6 ± 0.4% | – | –
